Like-named read-outs stand apart in the source and are kept apart here.
System: human cardiac fibroblasts
Conditions: 72 h, 10 ng/ml TGFβ; for effect on TGFβ-induced collagen production: Sirius Red
Description: Primary cardiac fibroblasts were isolated and cultured according to the method described previously [11]. […] The suspension was centrifuged at 300 g for 5 min and the cell pellet was resuspended in DMEM F12 medium (Sigma D6434) supplemented with 10% FBS, penicillin (20 U/mL)-streptomycin (20 μg/mL) and 2 mM glutamine and cultured in a 37° C., 5% CO2 incubator. Primary cardiac fibroblasts were used up to passage 3. Cardiac fibroblasts were exposed to 10 ng/ml TGFβ (T) for 72 h in the presence or absence of 5 μM lovastatin (L) or 5 nM dasatinib (D) or combination of 5 μM lovastatin and 5 nM dasatinib (DL).
Following treatment, cardiac fibroblasts were fixed in methanol, and incubated in the 0.1% Picrosirius red staining solution (Sigma-Aldrich, France) as per manufacturer's instructions.
Picrosirius red was solubilised in 0.1 N sodium hydroxide and the optical density was read at 540 nm (SERLABO Technologies, France).
Data are expressed as mean±SEM. Comparison between two groups was performed by Student's two-tailed t-test while comparison of multiple groups was performed by one-way ANOVA followed by a Bonferroni's post hoc test using GraphPad Prism version 5.00 (GraphPad Software, Inc).

| Compound | collagen values relative to control (5 nM dasatinib) | effect on TGFβ-induced collagen production (5 nM dasatinib) | collagen values relative to control (5 μM lovastatin) | effect on TGFβ-induced collagen production (5 μM lovastatin) |
| --- | --- | --- | --- | --- |
| Cc1nc(Nc2ncc(C(=O)Nc3c(C)cccc3Cl)s2)cc(N2CCN(CCO)CC2)n1 [dasatinib, N-(2-chloro-6-methylphenyl)-2-[6-[4-(2-hydroxyethyl)-1-piperazinyl]-2-methyl-4-pyrimidinyl]amino]-5-thiazole carboxamide monohydrate] | did not reach control values | modest but significant effects | – | – |
| CCC(C)C(=O)OC1CC(C)C=C2C=CC(C)C(CCC3CC(O)CC(=O)O3)C21 (stereo not shown) [lovastatin, [8-[2-(4-hydroxy-6-oxo-oxan-2-yl)ethyl]-3,7-dimethyl-1,2,3,7,8,8a-hexahydronaphthalen-1-yl] 2-methylbutanoate] | – | – | did not reach control values | modest but significant effects |

Source: patent US20250195519A1, “COMBINATION OF DASATINIB AND LOVASTATIN FOR USE IN METHODS FOR THE TREATMENT OF CARDIAC FIBROSIS” (INSERM (INSTITUT NATIONAL DE LA SANTÉ ET DE LA RECHERCHE …, priority 2022, published 2025)
